{Fethoc} = N-terminal Fethoc cap; [C(1O2)] = modified PNA monomer acting as cytosine, C(pOq) type, 1O2; [A(5)] = modified PNA monomer acting as adenine, A(p) type, p=5; [A(6)] = modified PNA monomer acting as adenine, A(p) type, p=6; [G(5)] = modified PNA monomer acting as guanine, G(p) type, p=5; [G(6)] = modified PNA monomer acting as guanine, G(p) type, p=6; {NH2} = C-terminal amide
How the values were obtained:
[1] = test system: HIF-1α mRNA; test: HIF-1α nested qPCR by SYBR Green in HeLa cells; format: cell-based, human; details: 3 hours
Description: “HIF-ASO 2” was evaluated by nested qPCR for its ability to inhibit the expression of the full-length HIF-1α mRNA in HeLa cells as follows. [Cell Culture & ASO Treatment] HeLa cells grown in 60 mm culture dish containing 5 mL medium were treated with “ASO 2” at 0 (negative control), 10, 100 or 1,000 zM (2 culture dishes per each ASO concentration). [RNA Extraction] 3 hours after the ASO treatment, total RNA was extracted with “MiniBEST Universal RNA Extraction Kit” (Cat. Number 9767, Takara) according to the manufacturer's instructions. [cDNA Synthesis by One Step RT-PCR] […] NO: 37); HIF-exon 8_reverse: (5'→3') […] [Nested qPCR] […] NO: 39); HIF-exon 2n_reverse (5'→3') […] NO: 40); HIF-exon 3n_forward (5'→3') […] NO: 41); HIF-exon 3n_reverse (5'→3') […] NO: 42); HIF-exon 4n_forward (5'→3') […] NO: 43); HIF-exon 4n_reverse (5'→3') […] NO: 44); HIF-exon 5n_forward (5'→3') […] NO: 45); HIF-exon 5n_reverse (5'→3') […] NO: 46). […] “HIF-ASO 6” was evaluated for its ability to induce a change in HIF-1α mRNA in HeLa cells by nested qPCR according to the procedures in “HIF-1α Example 4” unless noted otherwise. [cDNA Synthesis by One Step RT-PCR] […] NO: 50); HIF-exon 8(2) reverse: (5'→3') […] “HIF-ASO 12” was evaluated by HIF-1α nested qPCR for its ability to induce a change in the HIF-1a mRNA in HeLa cells as described in “HIF-1a Example 3”, unless noted otherwise. HeLa cells were treated with “HIF-ASO 12” for 6 hours, and then subjected to total RNA extraction.

[2] = test system: human SCN9A pre-mRNA; test: SCN9A nested PCR for exon skipping in PC3 cells; format: cell-based
Description: Given that PC3 cells are known to abundantly express the human SCN9A pre-mRNA [Br. J. Pharmacol. vol 156, 420-431 (2009)], “SCN-ASO 7” was evaluated by SCN9A nested PCR for its ability to induce the skipping of exon 4 in the human SCN9A pre-mRNA in PC3 cells as follows. [Cell Culture & ASO Treatment] PC3 cells (Cat. No. CRL-1435, ATCC) were maintained in Ham's F-12K medium supplemented with 10% FBS, 1% streptomycin/penicillin, 1% L-glutamine, and 1% sodium pyruvate under 5% CO2 atmosphere at 37° C. PC3 cells grown in 60 mm culture dish containing 5 mL medium were treated with “SCN-ASO 7” at 0 (negative control), 10, 100 or 1,000 zM. [RNA Extraction] Following an 18 hour incubation, the PC3 cells were treated with 100 μg/mL cycloheximide for another 6 hours in order to freeze the ribosomal translation. Then total RNA was extracted from cells using “Universal RNA Extraction Kit” (Cat. Number 9767, Takara) according to the manufacturer's instructions. [cDNA Synthesis by One Step RT-PCR] 200 ng of RNA template was used for a 25 μL reverse transcription reaction using Super Script® One-Step RT-PCR kit with Platinum® Taq polymerase (Cat. Number 10928-042, Invitrogen) and a set of exon-specific primers [SCN-exon 2_forward: (5'→3') […] NO: 74), and SCN-exon 9_reverse: (5'→3') […] [Nested PCR Amplification] 1 μL of cDNA solution (diluted by 100×) was subjected to a 20 μl PCR amplification by nested PCR (Cat. Number K2612, Bioneer) against a set of exon-specific primers [SCN-exon 3n_forward: (5'→3') […] NO: 76); and SCN-exon 8_reverse: (5'→3') […] Thus “SCN-exon 3n_forward” recognizes “the junction of exon 3 and exon 5” more selectively than “the junction of exon 3 and exon 4” found in the full length SCN9A mRNA. The primer sequence was designed to detect SCN9A splice variants lacking exon 4 more sensitively than the full length SCN9A mRNA. Such an exon skipping primer would be useful to detect mRNA splice variants having poor metabolic stability, since the full-length mRNA tends to show good metabolic stability gained through the evolution over billions years. [Identification of Exon Skipping Products] The nested PCR products were subjected to electrophoretic separation on a 2% agarose gel. The bands of target size were collected and analyzed by Sanger sequencing. […] “SCN-ASO 27” was evaluated for its ability to induce the skipping of “exon 4” in PC3 cells as described in “SCN9A Example 1”, unless noted otherwise. [Cell Culture & ASO Treatment] PC3 cells grown in 60 mm culture dish containing 5 mL culture medium were treated with “SCN-ASO 27” at 0 (negative control), 1, 10 or 100 zM. [Nested PCR Amplification] […] NO: 89); and SCN-exon 9n_reverse: (5'→3') […] “SCN-ASO 27” was evaluated for its ability to induce the skipping of “exon 4” in PC3 cells as described in “SCN9A Example 8”, unless noted otherwise. In this experiment, PC3 cells were treated with “SCN-ASO 27” at 0 (negative control), 1, 10, 100 and 1,000 aM for 24 hours. [Nested PCR Amplification] The nested PCR reaction was carried out against a set of primers of [SCN-exon 3/6_forward: (5'→3') […] NO: 91); and SCN-exon 9n_reverse: (5'→3') […]

Fethoc-A(6)GA-A(6)CT-TA(6)T-CC(1O2)T-A(6)CT-TA(6)-NH2 (AGAACTTATCCTACTTA; splice-switching; all peptide nucleic acid (PNA), [A(6)] at 1, 4, 8, 13, 17, [C(1O2)] at 11, 5' {Fethoc}, 3' {NH2}; peptide nucleic acid backbone) [HIF-ASO 6]
decrease of individual HIF-1α exon levels (SYBR Green) ([1]; HeLa cells, 10 zM): 35%
decrease of individual HIF-1α exon levels (SYBR Green) ([1]; HeLa cells, 100 zM): ~30%
decrease of individual HIF-1α exon levels (SYBR Green) ([1]; HeLa cells, 1,000 zM (1 aM)): ~45%

Fethoc-AA(5)G-TG(5)T-A(5)CC(1O2)-TA(5)A-A(5)C-NH2 (AAGTGTACCTAAAC; splice-switching; all peptide nucleic acid (PNA), [A(5)] at 2, 7, 11, 13, [G(5)] at 5, [C(1O2)] at 9, 5' {Fethoc}, 3' {NH2}; peptide nucleic acid written N to C) [SCN-ASO 27]
SCN9A exon skipping by nested PCR (exon 3/6 junction primer) ([2]; PC3 cells, 1, 10, 100 and 1,000 aM, 24 hours): yielded a strong PCR band assignable to the skipping of exons 4-5
SCN9A exon skipping by nested PCR ([2]; PC3 cells, 1, 10 or 100 zM): yielded a strong PCR band assignable to the skipping of exons 4-5
PCR band intensity for the full-length SCN9A mRNA ([2]; PC3 cells, 10 zM and 100 zM): stronger in treatment samples of 10 zM and 100 zM ASO than in the samples of the negative control

Fethoc-AC(1O2)T-TA(5)C-G(6)CA-A(5)AA(5)-AC(1O2)A-A(5)-NH2 (ACTTACGCAAAAACAA; all peptide nucleic acid (PNA), [C(1O2)] at 2, 14, [A(5)] at 5, 10, 12, 16, [G(6)] at 7, 5' {Fethoc}, 3' {NH2}; peptide nucleic acid written N to C) [SCN-ASO 7]
skipping of SCN9A exon 4 by nested PCR ([2]; PC3 cells, 1 aM, 24 hours): conspicuously strong
skipping of SCN9A exon 4 by nested PCR ([2]; PC3 cells, 10 and 100 zM, 24 hours): visible

Fethoc-GA(5)A-C(1O2)TT-A(5)TC-CTA(5)-C(1O2)T-NH2 (GAACTTATCCTACT; splice-switching; all peptide nucleic acid (PNA), [A(5)] at 2, 7, 12, [C(1O2)] at 4, 13, 5' {Fethoc}, 3' {NH2}; peptide nucleic acid backbone) [HIF-ASO 2]
decrease of individual HIF-1α exon levels (SYBR Green) ([1]; HeLa cells, 1,000 zM (1 aM)): not different from the exon levels in the cells without ASO treatment
